Experiments:
[1] = system: mouse embryonic fibroblasts (MEFs); assay: Reprogramming efficiency: GFP-positive cells by flow cytometry in KSP-Cre mTOM/mGFP reporter MEFs; assay type: cell-based; conditions: added to culture medium of 4TF treated MEFs for 7 days: Vitamin C 50 μg/ml, CHIR99021 3 μM, Forskolin 10 μM, Valproic Acid 1 mM, 5-Azacytidine 2 μM
Description: Next, we expressed candidate transcription factors in isolated MEFs by lentiviral transduction and analyzed GFP reporter-expression by flow cytometry (FIG. 2a and FIG. 11a).
Tissue was minced with a scalpel and digested with 0.25% Trypsin-EDTA for 30 min at 37° C. Trypsinization was stopped by addition of MEF Medium (MEFM: Dulbecco's modified Eagle's medium (DMEM), 10% fetal bovine serum (FBS), 2 mM L-glutamine, penicillin/streptomycin). After resuspension the cells were centrifuged and the pellet was resuspended in MEFM and plated on gelatine-coated 6-well plates for 3 days until they reached confluency. […] MEFs, TTFs and human fibroblasts were frozen in liquid nitrogen and used without further passaging for reprogramming experiments. For efficiency improvement experiments the following substances were added to the cell culture medium for 7 days: Vitamin C (Sigma, 50 μg/ml); CHIR99021 (Sigma, 3 μM); Forskolin (FocusBiomolecules, 10 μM); Valproic Acid (Sigma, 1 mM); 5-Azacytidine (Sigma, 2 μM).
For the infection of MEFs, TTFs, HFoFs and HFeFs virus concentrate was diluted 1:100 (high viral titers) to 1:1000 (low viral titers) in MEFM containing 10 μg/ml Polybrene and cells were incubated for 12 h. Viral infection was repeated five to seven times. After cultivation in MEFM for 7 days, MEFs and TTFs were analyzed for GFP expression by flow cytometry.
For flow cytometry analyses, cells were harvested, resuspended in FACS buffer (PBS supplemented with 3% FBS and 5 mM EDTA), filtered through a 50 μm cell strainer and analyzed using the 13-color LCR Fortessa FACS analyzer (Becton Dickinson).

[2] = target: organic cation transporter 2 (Oct2) (Mus musculus, UniProt O70577); conditions: 6 μg/ml cisplatin and 1 mM cimetidine versus cisplatin alone
Description: Drug treated cells and untreated controls were stained with 1 μg/ml DAPI (Invitrogen, D1306) for 5 minutes and fluorescence was measured via flow cytometry using the 405 nm laser for excitation. Dead cells were identified by comparing emission of DAPI stained cell and unstained controls using a 450/50 nm band pass filter. For Kim-1 expression analysis MEFs and iRECs were treated with Gentamicin (1 mg/ml for 48 h), stained for Kim-1 (Miltenyi Biiotec, 130-106-024) and analyzed by flow cytometry. […] Cells were harvested and analyzed as described above. Experiments were performed in triplicates and repeated three times.

[3] = system: iRECs; assay: Kim-1 expression analysis by flow cytometry after drug treatment; assay type: cell-based, mouse; conditions: Gentamicin 1 mg/ml for 48 h
Description: (§1) Cells were harvested and analyzed as described above. Experiments were performed in triplicates and repeated three times.

[4] = system: iRECs; assay: Cytotoxicity assay (dead/apoptotic cells by DAPI flow cytometry) in iRECs versus MEFs; assay type: cell-based; conditions: Cisplatin 6 μg/ml 24 h; Tacrolimus 40 μM 24 h; Gentamicin 1 mg/ml 48 h
Description: as §1

Chain of organic cation transporter 2 (Oct2) (O70577 whole entry): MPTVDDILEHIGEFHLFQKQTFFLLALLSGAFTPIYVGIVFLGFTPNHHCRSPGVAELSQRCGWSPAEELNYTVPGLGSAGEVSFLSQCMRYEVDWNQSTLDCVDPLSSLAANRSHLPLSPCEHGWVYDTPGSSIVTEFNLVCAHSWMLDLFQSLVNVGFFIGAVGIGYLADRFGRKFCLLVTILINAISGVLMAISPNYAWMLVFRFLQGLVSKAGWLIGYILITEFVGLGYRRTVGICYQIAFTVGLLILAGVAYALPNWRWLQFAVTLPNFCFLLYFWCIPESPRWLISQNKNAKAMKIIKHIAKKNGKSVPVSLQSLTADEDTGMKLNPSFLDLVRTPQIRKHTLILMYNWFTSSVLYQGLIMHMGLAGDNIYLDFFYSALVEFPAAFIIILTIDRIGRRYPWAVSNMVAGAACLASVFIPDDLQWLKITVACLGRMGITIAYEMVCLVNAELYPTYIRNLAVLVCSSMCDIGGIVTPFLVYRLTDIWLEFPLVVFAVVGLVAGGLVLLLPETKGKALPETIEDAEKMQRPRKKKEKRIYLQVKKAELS

`Nc1ncn([C@@H]2O[C@H](CO)[C@@H](O)[C@H]2O)c(=O)n1` [5 azacytidine, 5-azacytidine] was tested, and the “effect on the percentage of GFP-positive cells” value (“effect on the percentage” below) [1] was “did not have an effect”.
For `Cc1c[nH]c(-c2cnc(NCCNc3ccc(C#N)cn3)nc2-c2ccc(Cl)cc2Cl)n1` [CHIR99021], the “effect on the percentage” value [1] was “did not have an effect”.
With `CN/C(=N/CCSCc1nc[nH]c1C)NC#N` [Cimetidine] the “cisplatin induced toxicity in iRECs” value [2] was “decreased”.
For `O=C1O[C@H]([C@@H](O)CO)C(O)=C1O` [Vitamin C], the “effect on the percentage” value [1] was “did not have an effect”.
`CCCC(CCC)C(=O)O` [valproic acid] was tested, and the “effect on the percentage” value [1] was “did not have an effect”.
Gentamicin was tested, and the “Kidney injury molecule 1 (KIM1) in iRECs” value [3] was “markedly increased” and the “rate of apoptosis in treated iRECs compared to MEFs” value [4] was “significantly higher”.

Reference: patent US11046932B2, “Method of producing renal cells from differentiated cells” (priority 2016, dated 2021)
